Measured values taken from patent publication US11344510B2, “Arylcyclohexylamine derivatives and their use in the treatment of psychiatric disorders” (Gilgamesh Pharmaceuticals, Inc., priority 2019, dated 2022).
“Also recorded” adds a separate entry of the source. Structures can show the parent of a compound that is named as a salt. Where two headings read alike, the source gives them in different places.

What was measured:
[1] = Formation of metabolites 11R/11S in RLM (High Activity conditions); assay type: in vitro ADME, Sprague Dawley rats; conditions: LC-MS/MS
Description: RLM Stability (High Activity). Pooled RLM from male Sprague Dawley rats (XenoTech R1000, lot #1910100) were used. Microsomal incubations were carried out in 96-well plates in 5 aliquots of 40 μL each (one for each time point). Liver microsomal incubation medium consisted of PBS (100 mM, pH 7.4), MgCl2 (3.3 mM), NADPH (3 mM), glucose-6-phosphate (5.3 mM), and glucose-6-phosphate dehydrogenase (0.67 units/mL), with 1.0 mg of liver microsomal protein per mL. Control incubations were performed by replacing the NADPH-cofactor system with PBS. Test compounds (1 μM, final solvent concentration 1.6%) were incubated with microsomes at 37° C., shaking at 100 rpm. Incubations were performed in duplicate. Five time points over 60 minutes were analyzed. […] Supernatants were analyzed for parent compound remaining using a fit-for-purpose liquid chromatography-tandem mass spectrometry (LC-MS/MS) method, with authentic samples of each analyte used for identity confirmation.
This condition was also used for experiments measuring the formation of metabolite 11R from compounds 14R and 88R and formation of metabolite 11S from compounds 14S and 88S. The concentrations of 11R and 11S formed during the incubations were quantified using a fit-for-purpose liquid chromatography-tandem mass spectrometry (LC-MS/MS) method, with authentic samples of each analyte used for calibration and identity confirmation.

[2] = target: MK-801 binding site of the N-methyl-D-aspartate receptor (NMDAR); experiment: NMDAR radioligand binding with [3H]MK-801, Method A; design: species or system Wistar rat; conditions: MK-801 site, Method A, Wistar rat brain (minus cerebellum), 5.0 nM [3H]MK-801; read-out: NMDAR Ki ± SEM
Description: Radioligand Binding—Method A. Affinity of the test compounds for NMDAR was determined in radioligand binding experiments with [^3H]MK-801 by Eurofins Panlabs, Inc., using methods adapted from the literature (Javitt et al. 1987; Reynolds et al. 1989) and under the conditions described in Table 12.

mice (forced swim test) = experiment: Forced swim test in mice, 2-h pre-treatment; assay type: in vivo, CD-1 mice; conditions: s.c.
Description: Animals. Male CD-1 mice, aged ˜8 weeks (body weight ˜25-30 g), were used in the experiments. Animals were singly housed under controlled temperatures and 12-hour light/dark cycles, with ad libitum food and water. These studies were carried out in strict accordance with the recommendations in the European Convention for the Protection of Vertebrate Animals Used for Experimental and Other Scientific Purposes. All efforts were made to minimize suffering.
Drugs and Drug Administration. Imipramine hydrochloride was administered intraperitoneally (i.p.) at a dose of 20 mg/kg. Other compounds were tested as the racemates (indicated by “rac” nomenclature) and were administered subcutaneously (s.c.) with doses calculated based on the freebase. Normal saline was used as the vehicle and all compounds were administered at a volume of 5 mL/kg, 2 h before behavioral testing.
Forced Swim Test (FST). Group size was n=10 per treatment, except for vehicle and rac-ketamine groups, which represented n=20 per treatment. Mice were placed individually in a glass cylinder measuring 19 cm wide by 30 cm tall and filled with 24° C. water to a depth of 18 cm. The activity of each mouse was video recorded during each 6-minute session and total immobility time was scored during the last 4 minutes of the session. The water was changed between each mouse to avoid any influence on behavior.
Statistical Analysis. […]

MK-801 site of NMDAR = MK-801 site of NMDAR (Rattus norvegicus, UniProt P35439); conditions: read-out: NMDAR Ki ± SEM, from Ebert et al. 1997; cited from earlier work
[3] = Oral bioavailability in rats, Method A; assay type: in vivo; conditions: plasma, Sprague Dawley rats
Description: Animals. Male Sprague Dawley rats were used in these studies Animals were randomly assigned to treatment groups and were fasted overnight before oral dosing.
Drugs. The test compound was dissolved in normal saline and administered intravenously (iv) or orally (po) at a dose of 10 mg/kg (calculated based on freebase) and at a volume of 5 mL/kg body weight. The compound was tested as the racemate (indicated by “rac” nomenclature).
Sample Collection and Bioanalysis. Blood samples were collected through external jugular vein (via cannulation) at 0.083, 0.25, 0.5, 1, 2, 4, 8 and 24 h post-dose (total 8 time points/rat, 4 rats per administration route). At each time point, ˜0.2 mL of blood was withdrawn and transferred into a pre-labeled 0.5 mL of micro centrifuge tube containing 4 μL of 200 mM K2EDTA solution as anticoagulant and mixed gently by inverting the tube to facilitate mixing of anticoagulant with the blood. Blood samples were kept on ice until centrifugation. The collected blood samples were centrifuged at 4000 rpm for 10 min at 4° C. Plasma samples were separated after centrifugation, transferred into pre-labeled tubes, and stored at −70° C. until bioanalysis. For bio analysis, 50 μL aliquots of plasma study samples or calibration standards were added to pre-labeled eppendorf tubes and 10 μL of an internal standard solution (diclofenac, 5 μg/mL in 50:50 v/v methanol:water) was added. Samples were quenched with 500 μL of precipitation solution (0.1% v/v formic acid in acetonitrile) and vortexed. All the samples were centrifuged at 14,000 rpm for 10 minutes at 4° C. Following centrifugation, 5 μL of each clear supernatant was analyzed with a fit-for-purpose LC-MS/MS method, with authentic samples of the analyte used for calibration and identification.
Data Analysis. Pharmacokinetic parameters were estimated using the non-compartmental analysis tool of Phoenix® WinNonlin software (Ver 8.1). The drug concentrations of samples below the lower limit of quantitation (LLOQ) were designated as zero.

SMILES: [2H]C([2H])([2H])N[C@@]1(c2ccccc2)CCCCC1=O [Compound 88R, (R)-2-((methyl-d3)amino)-2-phenylcyclohexan-1-one]
- formation of metabolites 11R and 11S compared to non-deuterated counterparts [1]: attenuated formation; also recorded: decreased formation

SMILES: CNC1(c2ccccc2)CCCCC1=O (racemic) [Compound 14rac, 2-(methylamino)-2-phenylcyclohexan-1-one hydrochloride]
- Ki [2]: 760 nM
- immobility time in FST (mice (forced swim test); 2 h before test, last 4 minutes, relative to vehicle, hydrochloride): reduced time immobile; also recorded: induced antidepressant-like effects
- potency at reducing immobility relative to rac-ketamine (mice (forced swim test); 2 h pre-treatment): at least 30 fold

SMILES: CNC1(c2ccccc2Cl)CCCCC1=O (racemic) [rac-ketamine, racemic ketamine, reference compound]
- Ki (MK-801 site of NMDAR): 530 ± 78 nM
- AUC(0-t) ([3]; male, rat, 10 mg/kg iv, read-out: AUC0-last (iv) (converted)): 1340 ng·h/mL
- half-life ([3]; male, rat, 10 mg/kg iv, read-out: t1/2 (iv)): 41.6 min
- Cmax ([3]; male, rat, 10 mg/kg po): 190 ng/mL
- AUC(0-t) ([3]; male, rat, 10 mg/kg po, read-out: AUC0-last (po) (converted)): 121 ng·h/mL
- half-life ([3]; male, rat, 10 mg/kg po, read-out: t1/2 (po)): 33.7 min
- F ([3]; 10 mg/kg): 9%
